{"source": "ChEMBL document CHEMBL3045532", "about": "“Synthesis and evaluation of novel prodrugs of naproxen” (Med Chem Res, 2011)", "key": {"[1]": {"test_system": "Mus musculus", "assay": "Analgesic activity in Mus musculus (mouse) assessed as inhibition of acetic acid-induced writhing at 66 mg/kg, po pretreated 1 hr before acetic acid challenge", "assay_type": "functional"}, "[2]": {"test_system": "Rattus norvegicus", "assay": "Gastrointestinal toxicity in Rattus norvegicus Wistar (rat) assessed as ulcer at 66 mg/kg, po", "assay_type": "organism-based", "set-up": "dose 66 mg/kg, route oral", "settings": "in vivo"}, "[3]": {"test_system": "Rattus norvegicus", "assay": "Anti-inflammatory activity in Rattus norvegicus Wistar (rat) assessed as inhibition of carrageenan-induced edema volume at 66.0 mg/kg, po measured after 90 min", "assay_type": "functional", "settings": "1.5 h"}, "[4]": {"assay": "Prodrug conversion in phosphate buffer assessed as half-life for hydrolysis at pH 7.4", "assay_type": "physicochemical"}, "[5]": {"assay": "Prodrug conversion in acetate buffer assessed as half-life for hydrolysis at pH 3", "assay_type": "physicochemical"}, "[6]": {"assay": "Prodrug conversion in acetate buffer assessed as half-life for hydrolysis at pH 5", "assay_type": "physicochemical"}, "[7]": {"assay": "Prodrug conversion in acetate buffer assessed as half-life for hydrolysis at pH 4", "assay_type": "physicochemical"}, "[8]": {"test_system": "Rattus norvegicus", "assay": "Anti-inflammatory activity in Rattus norvegicus Wistar (rat) assessed as inhibition of carrageenan-induced edema volume at 66.0 mg/kg, po measured after 60 min", "assay_type": "functional", "settings": "1 h"}, "[9]": {"test_system": "Rattus norvegicus", "assay": "Anti-inflammatory activity in Rattus norvegicus Wistar (rat) assessed as inhibition of carrageenan-induced edema volume at 66.0 mg/kg, po measured after 30 min", "assay_type": "functional", "settings": "0.5 h"}, "[10]": {"test_system": "Rattus norvegicus", "assay": "Anti-inflammatory activity in Rattus norvegicus Wistar (rat) assessed as inhibition of carrageenan-induced edema volume at 66.0 mg/kg, po measured after 120 min", "assay_type": "functional", "settings": "2 h"}, "[11]": {"organism": "Rattus norvegicus", "assay": "animal or person", "settings": "Wistar, po, 2 h, read-out: INH", "description": "Anti-inflammatory activity in Rattus norvegicus Wistar (rat) assessed as inhibition of carrageenan-induced edema volume at 50.0 mg/kg, po measured after 120 min"}, "[12]": {"organism": "Mus musculus", "assay": "animal or person", "settings": "po, read-out: INH", "description": "Analgesic activity in Mus musculus (mouse) assessed as inhibition of acetic acid-induced writhing at 50 mg/kg, po pretreated 1 hr before acetic acid challenge"}, "[13]": {"organism": "Rattus norvegicus", "assay": "animal or person", "settings": "Wistar, po, 1.5 h, read-out: INH", "description": "Anti-inflammatory activity in Rattus norvegicus Wistar (rat) assessed as inhibition of carrageenan-induced edema volume at 50.0 mg/kg, po measured after 90 min"}, "[14]": {"organism": "Rattus norvegicus", "assay": "animal or person", "settings": "Wistar, po, 1 h, read-out: INH", "description": "Anti-inflammatory activity in Rattus norvegicus Wistar (rat) assessed as inhibition of carrageenan-induced edema volume at 50.0 mg/kg, po measured after 60 min"}, "[15]": {"organism": "Rattus norvegicus", "assay": "animal or person", "settings": "Wistar, po, 0.5 h, read-out: INH", "description": "Anti-inflammatory activity in Rattus norvegicus Wistar (rat) assessed as inhibition of carrageenan-induced edema volume at 50.0 mg/kg, po measured after 30 min"}, "[16]": {"test_system": "Rattus norvegicus", "assay": "Anti-inflammatory activity in Rattus norvegicus Wistar (rat) assessed as inhibition of carrageenan-induced edema volume at 62.8 mg/kg, po measured after 90 min", "assay_type": "functional", "settings": "1.5 h"}, "[17]": {"test_system": "Rattus norvegicus", "assay": "Anti-inflammatory activity in Rattus norvegicus Wistar (rat) assessed as inhibition of carrageenan-induced edema volume at 62.8 mg/kg, po measured after 120 min", "assay_type": "functional", "settings": "2 h"}, "[18]": {"test_system": "Rattus norvegicus", "assay": "Anti-inflammatory activity in Rattus norvegicus Wistar (rat) assessed as inhibition of carrageenan-induced edema volume at 62.8 mg/kg, po measured after 60 min", "assay_type": "functional", "settings": "1 h"}, "[19]": {"test_system": "Rattus norvegicus", "assay": "Anti-inflammatory activity in Rattus norvegicus Wistar (rat) assessed as inhibition of carrageenan-induced edema volume at 62.8 mg/kg, po measured after 30 min", "assay_type": "functional", "settings": "0.5 h"}, "[20]": {"test_system": "Mus musculus", "assay": "Analgesic activity in Mus musculus (mouse) assessed as inhibition of acetic acid-induced writhing at 62.8 mg/kg, po pretreated 1 hr before acetic acid challenge", "assay_type": "functional"}, "[21]": {"test_system": "Rattus norvegicus", "assay": "Gastrointestinal toxicity in Rattus norvegicus Wistar (rat) assessed as ulcer at 62.8 mg/kg, po", "assay_type": "organism-based", "set-up": "dose 62.8 mg/kg, route oral", "settings": "in vivo"}, "[22]": {"test_system": "Mus musculus", "assay": "Analgesic activity in Mus musculus (mouse) assessed as inhibition of acetic acid-induced writhing at 63.2 mg/kg, po pretreated 1 hr before acetic acid challenge", "assay_type": "functional"}, "[23]": {"test_system": "Rattus norvegicus", "assay": "Anti-inflammatory activity in Rattus norvegicus Wistar (rat) assessed as inhibition of carrageenan-induced edema volume at 63.2 mg/kg, po measured after 120 min", "assay_type": "functional", "settings": "2 h"}, "[24]": {"test_system": "Rattus norvegicus", "assay": "Anti-inflammatory activity in Rattus norvegicus Wistar (rat) assessed as inhibition of carrageenan-induced edema volume at 63.2 mg/kg, po measured after 30 min", "assay_type": "functional", "settings": "0.5 h"}, "[25]": {"test_system": "Rattus norvegicus", "assay": "Anti-inflammatory activity in Rattus norvegicus Wistar (rat) assessed as inhibition of carrageenan-induced edema volume at 63.2 mg/kg, po measured after 60 min", "assay_type": "functional", "settings": "1 h"}, "[26]": {"test_system": "Rattus norvegicus", "assay": "Gastrointestinal toxicity in Rattus norvegicus Wistar (rat) assessed as ulcer at 63.2 mg/kg, po", "assay_type": "organism-based", "set-up": "dose 63.2 mg/kg, route oral", "settings": "in vivo"}, "[27]": {"test_system": "Rattus norvegicus", "assay": "Anti-inflammatory activity in Rattus norvegicus Wistar (rat) assessed as inhibition of carrageenan-induced edema volume at 63.2 mg/kg, po measured after 90 min", "assay_type": "functional", "settings": "1.5 h"}}}
{"smiles": "COc1ccc2cc(C(C)C(=O)OCC(OC(C)=O)C(OC(C)=O)C(OC(C)=O)C(/C=N/[C@H](C(=O)O)C(C)C)OC(C)=O)ccc2c1", "note": "(stereo not given in full)", "values": [{"measurement": "inhibition in vivo at 66 mg/kg", "setting": "[1]", "result": 63.6, "unit": "%"}, {"measurement": "Activity", "setting": "[2]", "result": "Non-toxic"}, {"measurement": "inhibition in vivo at 66 mg/kg", "setting": "[3]", "result": 43, "unit": "%"}, {"measurement": "t1/2", "setting": "[4]", "result": 19, "unit": "h"}, {"measurement": "t1/2", "setting": "[5]", "result": 44, "unit": "h"}, {"measurement": "t1/2", "setting": "[6]", "result": 88, "unit": "h"}, {"measurement": "t1/2", "setting": "[7]", "result": 115, "unit": "h"}, {"measurement": "inhibition in vivo at 66 mg/kg", "setting": "[8]", "result": 19, "unit": "%"}, {"measurement": "inhibition in vivo at 66 mg/kg", "setting": "[9]", "result": 30, "unit": "%"}, {"measurement": "inhibition in vivo at 66 mg/kg", "setting": "[10]", "result": 64, "unit": "%"}]}
{"smiles": "COc1ccc2cc([C@H](C)C(=O)O)ccc2c1", "note": "[NAPROXEN]", "values": [{"measurement": "inhibition in vivo at 50 mg/kg", "setting": "[11]", "result": 58, "unit": "%"}, {"measurement": "inhibition in vivo at 50 mg/kg", "setting": "[12]", "result": 61.4, "unit": "%"}, {"measurement": "inhibition in vivo at 50 mg/kg", "setting": "[13]", "result": 42, "unit": "%"}, {"measurement": "inhibition in vivo at 50 mg/kg", "setting": "[14]", "result": 32, "unit": "%"}, {"measurement": "inhibition in vivo at 50 mg/kg", "setting": "[15]", "result": 10, "unit": "%"}]}
{"smiles": "COc1ccc2cc(C(C)C(=O)OCC(OC(C)=O)C(OC(C)=O)C(OC(C)=O)C(/C=N/CC(=O)O)OC(C)=O)ccc2c1", "note": "(stereo not given)", "values": [{"measurement": "t1/2", "setting": "[4]", "result": 25, "unit": "h"}, {"measurement": "t1/2", "setting": "[5]", "result": 115, "unit": "h"}, {"measurement": "inhibition in vivo at 62.8 mg/kg", "setting": "[16]", "result": 58, "unit": "%"}, {"measurement": "t1/2", "setting": "[6]", "result": 88, "unit": "h"}, {"measurement": "t1/2", "setting": "[7]", "result": 44, "unit": "h"}, {"measurement": "inhibition in vivo at 62.8 mg/kg", "setting": "[17]", "result": 76, "unit": "%"}, {"measurement": "inhibition in vivo at 62.8 mg/kg", "setting": "[18]", "result": 37, "unit": "%"}, {"measurement": "inhibition in vivo at 62.8 mg/kg", "setting": "[19]", "result": 58, "unit": "%"}, {"measurement": "inhibition in vivo at 62.8 mg/kg", "setting": "[20]", "result": 63.6, "unit": "%"}, {"measurement": "Activity", "setting": "[21]", "result": "Non-toxic"}]}
{"smiles": "COc1ccc2cc(C(C)C(=O)OCC(OC(C)=O)C(OC(C)=O)C(OC(C)=O)C(/C=N/[C@@H](C)C(=O)O)OC(C)=O)ccc2c1", "note": "(stereo not given in full)", "values": [{"measurement": "inhibition in vivo at 63.2 mg/kg", "setting": "[22]", "result": 98.2, "unit": "%"}, {"measurement": "inhibition in vivo at 63.2 mg/kg", "setting": "[23]", "result": 67, "unit": "%"}, {"measurement": "t1/2", "setting": "[4]", "result": 22, "unit": "h"}, {"measurement": "t1/2", "setting": "[5]", "result": 15, "unit": "h"}, {"measurement": "inhibition in vivo at 63.2 mg/kg", "setting": "[24]", "result": 62, "unit": "%"}, {"measurement": "inhibition in vivo at 63.2 mg/kg", "setting": "[25]", "result": 29, "unit": "%"}, {"measurement": "t1/2", "setting": "[6]", "result": 77, "unit": "h"}, {"measurement": "t1/2", "setting": "[7]", "result": 15, "unit": "h"}, {"measurement": "Activity", "setting": "[26]", "result": "Non-toxic"}, {"measurement": "inhibition in vivo at 63.2 mg/kg", "setting": "[27]", "result": 49, "unit": "%"}]}
